# Data as given in US20240262803A1, “COMPOUNDS, COMPOSITIONS AND METHODS OF TREATING DISORDERS” (Chungdu Anticancer Bioscience Ltd, priority 2021, published 2024).
# pEC50: −log10 of the molar value. Entries after “also recorded” stand apart in the source; their conditions may differ. Where two headings read alike, the source gives them in different places.
# Assays:
# [1] = test system: liver cancer cell line T2 HCC; test: Minimal effective concentration that elicits polyploidy, T2 HCC; format: cell-based; details: Mus musculus, read-out: MECP: Minimal effective concentration that elicits polyploidy
# [2] = test system: cervical cancer cell line Hela; test: Minimal effective concentration that elicits polyploidy, Hela; format: cell-based; details: Homo sapiens, read-out: MECP: Minimal effective concentration that elicits polyploidy
# [3] = test system: liver cancer cell line T2 HCC; test: MTT assay of cellular proliferation, T2 HCC; format: cell-based; details: Mus musculus, read-out: EC50: Concentration that inhibits 50% of proliferation
# Method in brief: (§1)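 Cells were grown in DMEM with 5% FBS, glutamine and pyruvate at 37 °C, 5% CO2, seeded to reach 20˜30% confluence after 15˜24 h, then exposed to compounds from 1 nM to 10 μM. Formazan from MTT was read at 570 nm, and EC50 was the concentration giving 50% inhibition of proliferation.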
# [4] = test system: cervical cancer cell line Hela; test: MTT assay of cellular proliferation, Hela; format: cell-based; details: Homo sapiens, read-out: EC50: Concentration that inhibits 50% of proliferation
# Method in brief: as §1
# [5] = test system: gastric cancer cell line NCI-N87; test: MTT assay of cellular proliferation, NCI-N87; format: cell-based; details: Homo sapiens, read-out: EC50: Concentration that inhibits 50% of proliferation
# Method in brief: as §1
# SW480 = test: Minimal effective concentration that elicits polyploidy, SW480; format: cell-based; details: Homo sapiens, read-out: MECP: Minimal effective concentration that elicits polyploidy
# RPEMYC^H2B-GFP cells [6] = test: Mechanism-informed phenotypic screening assay (mitotic arrest, polyploidy; GE IN-Cell Analyzer 2000); format: cell-based; details: 20 nM to 20 μM, 24, 48 or 72 hours, read-out: Min. Effective conc. for polyploidy (≥5%)
# Method in brief: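 RPEMYC^H2B-GFP cells expressing Histone 2B-EGFP were treated with compounds at 20 nM to 20 μM. Mitotic arrest and DNA content were imaged at 24, 48 or 72 h. Minimal effective concentrations eliciting polyploidy are given as letter bins.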
# [7] = test system: lung cancer cell line A549; test: Minimal effective concentration that elicits polyploidy, A549; format: cell-based; details: Homo sapiens, read-out: MECP: Minimal effective concentration that elicits polyploidy
# [8] = test system: colon cancer cell line SW460; test: MTT assay of cellular proliferation, SW460; format: cell-based; details: Homo sapiens, SW480; read-out: EC50: Concentration that inhibits 50% of proliferation
# Method in brief: as §1
# [9] = test system: breast cancer cell line MDA-MB-231; test: MTT assay of cellular proliferation, MDA-MB-231; format: cell-based; details: Homo sapiens, read-out: EC50: Concentration that inhibits 50% of proliferation
# Method in brief: as §1
# [10] = test system: lung cancer cell line NCI-H23; test: Minimal effective concentration that elicits polyploidy, NCI-H23; format: cell-based; details: Homo sapiens, read-out: MECP: Minimal effective concentration that elicits polyploidy
# [11] = test system: lung cancer cell line NCI-H23; test: MTT assay of cellular proliferation, NCI-H23; format: cell-based; details: Homo sapiens, read-out: EC50: Concentration that inhibits 50% of proliferation
# Method in brief: as §1
# [12] = test system: breast cancer cell line MDA-MB-231; test: Minimal effective concentration that elicits polyploidy, MDA-MB-231; format: cell-based; details: Homo sapiens, read-out: MECP: Minimal effective concentration that elicits polyploidy
# RPEMYC^H2B-GFP cells [13] = test: Mechanism-informed phenotypic screening assay (mitotic arrest, polyploidy; GE IN-Cell Analyzer 2000); format: cell-based; details: 20 nM to 20 μM, 24, 48 or 72 hours, read-out: Mitotic Arrest (≥5%)
# [14] = test system: gastric cancer cell line NCI-N87; test: Minimal effective concentration that elicits polyploidy, NCI-N87; format: cell-based; details: Homo sapiens, read-out: MECP: Minimal effective concentration that elicits polyploidy
# [15] = test system: human colon cancer cell line HCT116; test: Xenograft assay, HCT116; format: in vivo; details: HCT116 subcutaneous xenograft, Nu/Nu mice, oral gavage twice a day for 9 days, FIG. 4
# Experimental: (§2) Xenografts were initiated in immunocompromised (Nu/Nu) mice with the human lung adenocarcinoma cell line NCI-H23 (FIG. 3) and the human colon cancer cell line HCT116 (FIG. 4). Five million cells were injected subcutaneously into each mouse and treatment was initiated when the average tumor volumes reached 150 mm3 (n=5/groups). Tumor-bearing mice were randomized into different groups to receive either vehicle or indicated compounds. The compounds were administered through oral gavage twice a day for 9 days. Day 0 on the x-axis indicates the day that treatment was initiated. For these experiments, all compounds were first dissolved in DMSO and then diluted 1:10 into a mixture containing 50% PEG300 and 49% PBS, 1% Tween 80, pH2.2. 100 ul of drug solution was administered with each dose. Tumor volumes were determined once every three days and are calculated from digital caliper raw data by using the formula: Volume (mm3)=(L×W^2)/2. The value W (Width) is the smaller of two perpendicular tumor axes and the value L (Length) is the larger of two perpendicular axes. Mean tumor volume growth curves and means are calculated for each treatment group.
# [16] = test system: colon cancer cell line HCT116; test: MTT assay of cellular proliferation, HCT116; format: cell-based; details: Homo sapiens, HCT-116, read-out: EC50: Concentration that inhibits 50% of proliferation
# Method in brief: as §1
# [17] = test system: lung cancer cell line A549; test: MTT assay of cellular proliferation, A549; format: cell-based; details: Homo sapiens, read-out: EC50: Concentration that inhibits 50% of proliferation
# Method in brief: as §1
# [18] = test system: human lung adenocarcinoma cell line NCI-H23; test: Xenograft assay, NCI-H23; format: in vivo; details: NCI-H23 subcutaneous xenograft, Nu/Nu mice, oral gavage twice a day for 9 days, FIG. 3
# Experimental: as §2
# [19] = test system: colon cancer cell line HCT116; test: Minimal effective concentration that elicits polyploidy, HCT116; format: cell-based; details: Homo sapiens, HCT-116, read-out: MECP: Minimal effective concentration that elicits polyploidy
# [20] = test system: prostate cancer cell line DU145; test: Minimal effective concentration that elicits polyploidy, DU145; format: cell-based, human
# [21] = test system: lung cancer cell line NCI-H596; test: Minimal effective concentration that elicits polyploidy, NCI-H596; format: cell-based, human
# [22] = test system: lung cancer cell line Calu-6; test: Minimal effective concentration that elicits polyploidy, Calu-6; format: cell-based, human
# [23] = test system: lung cancer cell line NCI-H460; test: MTT assay of cellular proliferation, NCI-H460; format: cell-based; details: Homo sapiens, read-out: EC50: Concentration that inhibits 50% of proliferation
# Experimental: (§3) Six lung cancer cell lines (NCI-H23, NCI-H460, NCI-H596, NCI-H2170, Calu-6 and A549), two colon cancer cell lines (HCT116 and SW460), one breast cancer cell line MDA-MB-231, one gastric cancer cell line NCI-N87, one prostate cancer cell line DU145, one cervical cancer cell line Hela, and one glioblastoma cell line T98G were obtained from ATCC. The T2 HCC cell line was derived from a mouse liver cancer model initiated by a transgene of MYC (Reference). All cell lines were cultured in DMEM (Gibco, Cleveland, TN, USA) supplemented with 5% fetal bovine serum (Gibco), penicillin (100 U/mL)-streptomycin (100 μg/mL) (Gibco, Cat. No. 15140-122), 2 mM L-glutamine (Gibco, 200 mM solution, Cat. No. 25030081), and 1 mM sodium pyruvate (Gibco, 100 mM solution, Cat. No. 11360070) at 37° C. in a humidified incubator that was maintained at 5% CO2.
# (§4) The MTT assay measures cellular metabolic activity as a proxy for cell viability and involves the conversion of the water-soluble yellow dye MTT [3-(4,5-dimethylthiazol-2-yl)-2,5-diphenyltetrazolium bromide] into an insoluble purple formazan by the action of mitochondrial reductase. Formazan is then solubilized and its concentration is determined by measuring the optical density (OD) value at a wavelength of 570 nm. The value is in proportional to the number of live cells with excellent linearity up to ˜10^6 cells per well. The MTT assay was used to determine the EC50 value, the concentration of a compound that leads to 50% inhibition of cellular proliferation. Briefly, cells were split when growing to the mid-Log phase. Cells in 100 μL of culture medium were seeded into each well of 96-well microplates and cultivated for 15˜24 hours to reach a confluence of 20˜30% and were then exposed to drugs at concentrations ranging from 1 nM to 10 μM. At the endpoint, 20 μL of a MTT stock solution in DMSO (5 mg/mL) was added to each well that contains […] of DMEM. The microplates were left in the cell culture incubator for 3˜4 h before subjected to solubilization and determination of formazan at A570 in a microplate reader (BioTek ELX808iu). […] Therefore, these compounds might hold a broad utility in the treatment of a large variety of human malignancies.
# [24] = test system: glioblastoma cell line T98G; test: MTT assay of cellular proliferation, T98G; format: cell-based; details: Homo sapiens, read-out: EC50: Concentration that inhibits 50% of proliferation
# Experimental: as §3, §4
# [25] = test system: lung cancer cell line NCI-H596; test: MTT assay of cellular proliferation, NCI-H596; format: cell-based; details: Homo sapiens, read-out: EC50: Concentration that inhibits 50% of proliferation
# Experimental: as §3, §4
# [26] = test system: lung cancer cell line NCI-H2170; test: MTT assay of cellular proliferation, NCI-H2170; format: cell-based; details: Homo sapiens, read-out: EC50: Concentration that inhibits 50% of proliferation
# Experimental: as §3, §4
# [27] = test system: lung cancer cell line NCI-H460; test: Minimal effective concentration that elicits polyploidy, NCI-H460; format: cell-based, human
# [28] = test system: lung cancer cell line Calu-6; test: MTT assay of cellular proliferation, Calu-6; format: cell-based; details: Homo sapiens, read-out: EC50: Concentration that inhibits 50% of proliferation
# Experimental: as §3, §4
# [29] = test system: glioblastoma cell line T98G; test: Minimal effective concentration that elicits polyploidy, T98G; format: cell-based, human
# [30] = test system: prostate cancer cell line DU145; test: MTT assay of cellular proliferation, DU145; format: cell-based; details: Homo sapiens, DU-145, read-out: EC50: Concentration that inhibits 50% of proliferation
# Experimental: as §3, §4
# [31] = test system: lung cancer cell line NCI-H2170; test: Minimal effective concentration that elicits polyploidy, NCI-H2170; format: cell-based, human
Compound,minimal effective concentration [1] [µM],minimal effective concentration [2] [µM],pEC50 [3],pEC50 [4],pEC50 [5],minimal effective concentration (SW480) [µM],minimal effective concentration (RPEMYC^H2B-GFP cells [6]) [µM],minimal effective concentration [7] [µM],pEC50 [8],pEC50 [9],minimal effective concentration [10] [µM],pEC50 [11],minimal effective concentration [12] [µM],minimal effective concentration (RPEMYC^H2B-GFP cells [13]) [µM],minimal effective concentration [14] [µM],tumor growth (tumor volume) [15],pEC50 [16],pEC50 [17],tumor growth (tumor volume) [18],minimal effective concentration [19] [µM],also measured
"COc1cc(OC)cc(Oc2ncccc2-c2ccnc(OC)c2)c1 [Compound 32, 2-(3,5-dimethoxyphenoxy)-2′-methoxy-3,4′-bipyridine]",0.001 to 1,0.001 to 1,6.00 to 9.00,6.00 to 9.00,6.00 to 9.00,0.001 to 1,1,0.001 to 1,6.00 to 9.00,6.00 to 9.00,0.001 to 1,6.00 to 9.00,0.001 to 1,1,0.001 to 1,suppressing the tumor growth,6.00 to 9.00,6.00 to 9.00,suppressing the tumor growth,0.001 to 1,–
"COc1cc(Oc2ncccc2-c2ccncc2)cc(C(F)(F)F)c1 [Compound 9, 2-(3-methoxy-5-(trifluoromethyl)phenoxy)-3,4′-bipyridine]",0.001 to 1,0.001 to 1,6.00 to 9.00,6.00 to 9.00,6.00 to 9.00,0.001 to 1,1,0.001 to 1,6.00 to 9.00,6.00 to 9.00,0.001 to 1,6.00 to 9.00,0.001 to 1,1,0.001 to 1,suppress the growth; also recorded: suppressing the tumor growth; also recorded: eliciting tumor regression,6.00 to 9.00,6.00 to 9.00,suppress the growth; also recorded: suppressing the tumor growth; also recorded: eliciting tumor regression,0.001 to 1,–
"COc1cc(OC)cc(Oc2ncccc2-c2ccnc(N)n2)c1 [Compound 19, 4-(2-(3,5-dimethoxyphenoxy)pyridin-3-yl)pyrimidin-2-amine]",0.001 to 1,0.001 to 1,6.00 to 9.00,6.00 to 9.00,6.00 to 9.00,–,1,1 to 10,–,6.00 to 9.00,0.001 to 1,6.00 to 9.00,0.001 to 1,1,0.001 to 1,–,6.00 to 9.00,5.00 to 6.00,–,0.001 to 1,MECP: Minimal effective concentration that elicits polyploidy [20]: B (B: 1 μM < conc. ≤ 10 μM); MECP: Minimal effective concentration that elicits polyploidy [21]: A (A: 1 nM < conc. ≤ 1 μM); MECP: Minimal effective concentration that elicits polyploidy [22]: A (A: 1 nM < conc. ≤ 1 μM); pEC50 [23]: 5.00 to 6.00; pEC50 [24]: 6.00 to 9.00; pEC50 [25]: 6.00 to 9.00; pEC50 [26]: 6.00 to 9.00; MECP: Minimal effective concentration that elicits polyploidy [27]: A (A: 1 nM < conc. ≤ 1 μM); pEC50 [28]: 6.00 to 9.00; MECP: Minimal effective concentration that elicits polyploidy [29]: A (A: 1 nM < conc. ≤ 1 μM); pEC50 [30]: 5.00 to 6.00; MECP: Minimal effective concentration that elicits polyploidy [31]: A (A: 1 nM < conc. ≤ 1 μM)
